Results reported in patent publication US20240208954A1, “OXADIAZOLE COMPOUND, PREPARATION METHOD THEREFOR, PHARMACEUTICAL COMPOSITION AND USE THEREOF” (SHANGHAI INSTITUTE OF MATERIA MEDICA, CHINESE ACADEMY OF …, priority 2020, published 2024).
pEC50: −log10 of the molar value. Read-outs that look alike come from different tables or passages of the source.

Experiments:
[1] = molecular target: T1, S1PR1 (Homo sapiens, UniProt P21453); experiment: Agonistic activity test on S1P receptors, FLIPR, CHO-K1/Ga15/EDG1 cells; assay type: cell-based; conditions: CHO-K1/Ga15/EDG1 cells, FLIPR agonist mode, read-out: S1PR1 EC50; for EC50: cells printed in μM
T1 construct: host or cells: CHO-K1 co-expressing Ga15
T1 sequence (P21453 whole entry): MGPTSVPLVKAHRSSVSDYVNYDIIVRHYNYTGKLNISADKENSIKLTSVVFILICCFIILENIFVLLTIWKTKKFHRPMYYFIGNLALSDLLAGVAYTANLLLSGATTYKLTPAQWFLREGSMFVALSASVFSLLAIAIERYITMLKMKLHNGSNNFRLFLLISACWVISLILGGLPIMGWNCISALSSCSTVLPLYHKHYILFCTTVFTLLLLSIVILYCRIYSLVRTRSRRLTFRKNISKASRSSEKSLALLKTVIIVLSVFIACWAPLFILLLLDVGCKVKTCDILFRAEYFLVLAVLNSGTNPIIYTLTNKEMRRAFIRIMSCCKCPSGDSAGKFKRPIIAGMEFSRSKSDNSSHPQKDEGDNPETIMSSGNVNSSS
Experimental: (§1) Instrument: FLIPR™ TETRA (Molecular Device)
Experimental materials: CHO-K1/Ga15/EDG1 cells constructed by GenScript autonomously.
(§2) Sample processing: Before the experiment, the working solution with the corresponding concentration was prepared by diluting with GPCR dilution buffer.
(§3) After 18-20 hours, the cell culture plat was taken out and added with dye working solution, and then the plate was placed in a 37° C./5% CO2 incubator for 1 hour, and finally equilibrated at room temperature for 15 minutes. Positive agonist working solution was added, and RFU values were detected and recorded. […] The positive agonist working fluid was added to the cell culture plate at the 21st second. […] The antagonistic mode detection program, the overall detection time of the instrument was 120 seconds, and positive antagonist working solution was added to the cell culture plate at the 21st second.
(§4) Data processing: Raw data were obtained via ScreenWorks (version 3.1) and saved as *FMD files on the Kingsray computer network system. Data were collected and analyzed using Excel and GraphPad Prism 6 software programs. For each well, the average fluorescence intensity value from 1 to 20 seconds was used as the baseline, and the maximum fluorescence intensity value from 21 to 120 seconds minus the minimum fluorescence intensity value from 21 to 120 seconds was the relative fluorescence intensity value (ARFU), from which the percentage activation or inhibition can be calculated based on the following equation.
(§5) % Activation Rate=(ΔRFUCompound-ΔRFUBackground)/(ΔRFUAgonist control-ΔRFUBackground)×100%
(§6) The data was analyzed using GraphPad Prism 6 with a four-parameter equation to calculate the EC50 and IC50 values. The four-parameter equation was as follows: y=Bottom+(Top-Bottom)/(1+10^((LogEC50/IC50-X)*HillSlope)), wherein X is the Log value of the concentration and Y was the inhibition rate.

[2] = molecular target: S1PR3 (Homo sapiens, UniProt Q99500); experiment: Agonistic activity test on S1P receptors, FLIPR; assay type: cell-based; conditions: FLIPR agonist mode; read-out: S1PR3 EC50
Chain of S1PR3 (Q99500 whole entry, species assumed): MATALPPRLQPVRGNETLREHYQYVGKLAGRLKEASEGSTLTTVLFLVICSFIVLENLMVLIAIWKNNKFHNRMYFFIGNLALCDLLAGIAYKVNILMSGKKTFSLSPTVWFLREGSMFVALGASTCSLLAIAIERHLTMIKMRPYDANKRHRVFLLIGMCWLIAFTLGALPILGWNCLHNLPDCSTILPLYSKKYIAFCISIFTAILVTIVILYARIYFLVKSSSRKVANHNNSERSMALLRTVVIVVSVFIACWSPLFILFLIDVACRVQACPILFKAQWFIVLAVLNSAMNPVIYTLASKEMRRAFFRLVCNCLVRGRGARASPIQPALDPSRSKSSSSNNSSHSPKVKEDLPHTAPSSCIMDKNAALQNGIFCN
Experimental: as §1, §2, §3, §4, §5, §6

Structure (SMILES)	pEC50 [1]	pEC50 [2]	EC50 [1]
CC(C)Oc1ccc(-c2nc(-c3ccc(CN4CC(C(=O)O)C4)c4ccccc34)no2)cc1Cl [Compound A10, 1-((4-(5-(3-chloro-4-isopropoxyphenyl)-1,2,4-oxadiazol-3-yl)naphthalen-1-yl)methyl) azetidine-3-carboxylic acid hydrochloric acid]	6.16	< 5.00	
CC(C)Oc1ccc(-c2nc(-c3ccc(CN4CC(C(=O)O)C4)c4ccccc34)no2)cc1Br [Compound A11, 1-((4-(5-(3-bromo-4-isopropoxyphenyl)-1,2,4-oxadiazol-3-yl)naphthalen-1-yl)methyl) azetidine-3-carboxylic acid hydrochloric acid]	5.86	< 5.00	
CC(C)Oc1ccc(-c2nc(-c3ccc(CN4CC(C(=O)O)C4)c4ccccc34)no2)cc1C(F)(F)F [Compound A12, 1-((4-(5-(4-isopropoxy-3-(trifluoromethyl)phenyl)-1,2,4-oxadiazol-3-yl)naphthalen-1-yl)methyl) azetidine-3-carboxylic acid hydrochloric acid]	6.45	< 5.00	
COc1cc(-c2nc(-c3ccc(CN4CC(C(=O)O)C4)c4ccccc34)no2)ccc1OC(C)C [Compound A13, 1-((4-(5-(4-isopropoxy-3-methoxyphenyl)-1,2,4-oxadiazol-3-yl)naphthalen-1-yl)methyl) azetidine-3-carboxylic acid hydrochloric acid]	5.81	< 5.00	
CC(C)Oc1ccc(-c2nc(-c3ccc(CN4CC(C(=O)O)C4)c4ccccc34)no2)cc1 [Compound A14, 1-((4-(5-(4-isopropoxyphenyl)-1,2,4-oxadiazol-3-yl)naphthalen-1-yl)methyl) azetidine-3-carboxylic acid hydrochloric acid]	5.78	< 5.00	
CC(C)(C)Oc1ccc(-c2nc(-c3ccc(CN4CC(C(=O)O)C4)c4ccccc34)no2)cc1 [Compound A15, 1-((4-(5-(4-(tert-butoxy)phenyl)-1,2,4-oxadiazol-3-yl)naphthalen-1-yl)methyl) azetidine-3-carboxylic acid hydrochloric acid]	5.91	< 5.00	
COc1ccc(-c2nc(-c3ccc(CN4CC(C(=O)O)C4)c4ccccc34)no2)cc1 [Compound A16, 1-((4-(5-(4-methoxyphenyl)-1,2,4-oxadiazol-3-yl)naphthalen-1-yl)methyl) azetidine-3-carboxylic acid hydrochloric acid]	5.93	< 5.00	
CCCOc1ccc(-c2nc(-c3ccc(CN4CC(C(=O)O)C4)c4ccccc34)no2)cc1 [Compound A17, 1-((4-(5-(4-propoxyphenyl)-1,2,4-oxadiazol-3-yl)naphthalen-1-yl)methyl) azetidine-3-carboxylic acid hydrochloric acid]		< 5.00	> 10 µM
O=C(O)C1CN(Cc2ccc(-c3noc(-c4ccc(OCc5ccccc5)cc4)n3)c3ccccc23)C1 [Compound A18, 1-((4-(5-(4-(benzyloxy)phenyl)-1,2,4-oxadiazol-3-yl)naphthalen-1-yl)methyl) azetidine-3-carboxylic acid hydrochloric acid]		< 5.00	> 10 µM
O=C(O)C1CN(Cc2ccc(-c3noc(-c4ccc(OC(F)(F)F)cc4)n3)c3ccccc23)C1 [Compound A19, 1-((4-(5-(4-(trifluoromethoxy)phenyl)-1,2,4-oxadiazol-3-yl)naphthalen-1-yl)methyl) azetidine-3-carboxylic acid hydrochloric acid]	5.95	< 5.00	
CC(C)c1ccc(-c2nc(-c3ccc(CN4CC(C(=O)O)C4)c4ccccc34)no2)cc1 [Compound A20, 1-((4-(5-(4-isopropylphenyl)-1,2,4-oxadiazol-3-yl)naphthalen-1-yl)methyl) azetidine-3-carboxylic acid hydrochloric acid]	5.98	< 5.00	
CCCc1ccc(-c2nc(-c3ccc(CN4CC(C(=O)O)C4)c4ccccc34)no2)cc1 [Compound A21, 1-((4-(5-(4-propylphenyl)-1,2,4-oxadiazol-3-yl)naphthalen-1-yl)methyl) azetidine-3-carboxylic acid hydrochloric acid]	5.90	< 5.00	
N#Cc1ccc(-c2nc(-c3ccc(CN4CC(C(=O)O)C4)c4ccccc34)no2)cc1 [Compound A22, 1-((4-(5-(4-cyanophenyl)-1,2,4-oxadiazol-3-yl)naphthalen-1-yl)methyl) azetidine-3-carboxylic acid hydrochloric acid]	5.95	< 5.00	
O=C(O)C1CN(Cc2ccc(-c3noc(-c4ccc(F)cc4)n3)c3ccccc23)C1 [Compound A23, 1-((4-(5-(4-fluorophenyl)-1,2,4-oxadiazol-3-yl)naphthalen-1-yl)methyl) azetidine-3-carboxylic acid hydrochloric acid]	5.71	< 5.00	
N#Cc1cccc(-c2nc(-c3ccc(CN4CC(C(=O)O)C4)c4ccccc34)no2)c1 [Compound A24, 1-((4-(5-(3-cyanophenyl)-1,2,4-oxadiazol-3-yl)naphthalen-1-yl)methyl) azetidine-3-carboxylic acid hydrochloric acid]	6.16	< 5.00	
O=C(O)C1CN(Cc2ccc(-c3noc(-c4cccc(F)c4)n3)c3ccccc23)C1 [Compound A25, 1-((4-(5-(3-fluorophenyl)-1,2,4-oxadiazol-3-yl)naphthalen-1-yl)methyl) azetidine-3-carboxylic acid hydrochloric acid]	5.98	< 5.00	
O=C(O)C1CN(Cc2ccc(-c3noc(-c4ccccc4)n3)c3ccccc23)C1 [Compound A26, 1-((4-(5-phenyl-1,2,4-oxadiazol-3-yl)naphthalen-1-yl)methyl) azetidine-3-carboxylic acid hydrochloric acid]	6.13	< 5.00	
O=C(O)C1CN(Cc2ccc(-c3noc(-c4ccncc4)n3)c3ccccc23)C1 [Compound A27, 1-((4-(5-(pyridin-4-yl)-1,2,4-oxadiazol-3-yl)naphthalen-1-yl)methyl) azetidine-3-carboxylic acid hydrochloric acid]		< 5.00	> 10 µM
O=C(O)C1CN(Cc2ccc(-c3noc(-c4cccnc4)n3)c3ccccc23)C1 [Compound A28, 1-((4-(5-(pyridin-3-yl)-1,2,4-oxadiazol-3-yl)naphthalen-1-yl)methyl) azetidine-3-carboxylic acid hydrochloric acid]	5.93	< 5.00	
O=C(O)C1CN(Cc2ccc(-c3noc(-c4ccccn4)n3)c3ccccc23)C1 [Compound A29, 1-((4-(5-(pyridin-2-yl)-1,2,4-oxadiazol-3-yl)naphthalen-1-yl)methyl) azetidine-3-carboxylic acid hydrochloric acid]	6.00	< 5.00	
O=C(O)C1CN(Cc2ccc(-c3noc(-c4ccc5c(c4)OCO5)n3)c3ccccc23)C1 [Compound A31]	5.89	< 5.00	
O=C(O)C1CN(Cc2ccc(-c3noc(-c4ccc5c(c4)OCCO5)n3)c3ccccc23)C1 [Compound A32, 1-((4-(5-(2,3-dihydrobenzo[b][1,4]dioxin-6-yl)-1,2,4-oxadiazol-3-yl)naphthalen-1-yl)methyl) azetidine-3-carboxylic acid hydrochloric acid]	6.21	< 5.00	
O=C(O)C1CN(Cc2ccc(-c3noc(-c4cnc5ccccc5c4)n3)c3ccccc23)C1 [Compound A33, 1-((4-(5-(quinolin-3-yl)-1,2,4-oxadiazol-3-yl)naphthalen-1-yl)methyl) azetidine-3-carboxylic acid hydrochloric acid]	6.03	< 5.00	
O=C(O)C1CN(Cc2ccc(-c3noc(-c4cnc5ccccc5n4)n3)c3ccccc23)C1 [Compound A34, 1-((4-(5-(quinoxaline-2-yl)-1,2,4-oxadiazol-3-yl)naphthalen-1-yl)methyl) azetidine-3-carboxylic acid hydrochloric acid]	6.13	< 5.00	
O=C(O)C1CN(Cc2ccc(-c3noc(-c4ccc5[nH]ccc5c4)n3)c3ccccc23)C1 [Compound A35, 1-((4-(5-(1H-indole-5-yl)-1,2,4-oxadiazol-3-yl)naphthalen-1-yl)methyl) azetidine-3-carboxylic acid hydrochloric acid]	5.71	< 5.00	
O=C(O)C1CN(Cc2ccc(-c3noc(-c4cc5ccccc5[nH]4)n3)c3ccccc23)C1 [Compound A36, 1-((4-(5-(1H-indole-2-yl)-1,2,4-oxadiazol-3-yl)naphthalen-1-yl)methyl) azetidine-3-carboxylic acid hydrochloric acid]	5.96	< 5.00	
